Assay results reported in publication PMC7404261 (2020).

What was measured:
[1] = system: ssDNA-G4-Fw (DNA, G4) CGGGAAAAGGCGCGCGGAAGGGGT; experiment: ThT fluorescence titration; details: Na+ (PBS), ThT 3 µM, ODN 0-6 µM, 491 nm, fitted to 1:1 model, unit not given
[2] = system: RNA-G4 (RNA, G4) GGGAAAAGGCGCGCGGAAGGGG; experiment: ThT fluorescence titration; details: Na+ (PBS), ThT 3 µM, ODN 0-6 µM, 491 nm, fitted to 1:1 model, unit not given

Cc1ccc2c(c1)sc(-c1ccc(N(C)C)cc1)[n+]2C
association constant [1]: 2.72 × 10^6 | association constant [2]: 2.90 × 10^6
